Where “and” joins values, the source holds several entries; their conditions need not be identical. Identical values can stand only once.
Target: T1, human GPR119 (Homo sapiens, UniProt Q8TDV5)
T1 construct: host or cells: HEK293-CRE beta-lactamase cells
T1 sequence (Q8TDV5 1-335): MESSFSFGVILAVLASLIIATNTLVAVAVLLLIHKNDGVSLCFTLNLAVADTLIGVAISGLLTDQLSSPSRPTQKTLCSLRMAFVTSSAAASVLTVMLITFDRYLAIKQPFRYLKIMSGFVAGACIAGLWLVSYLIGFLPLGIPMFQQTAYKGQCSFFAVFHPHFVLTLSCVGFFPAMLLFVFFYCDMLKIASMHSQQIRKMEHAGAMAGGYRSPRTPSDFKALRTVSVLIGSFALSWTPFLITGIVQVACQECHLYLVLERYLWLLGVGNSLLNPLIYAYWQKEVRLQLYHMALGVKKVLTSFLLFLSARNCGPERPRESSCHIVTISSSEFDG
Experiment: GPR119 radioligand binding assay ([3H]-Compound A or [3H]-Compound B, membranes of HEK 293FT cells expressing hGPR119)
Conditions: Ki calculated from IC50 by the Cheng-Prusoff equation; one value per run
Experimental: HEK 293FT cells (Invitrogen, Carlsbad, Calif.) were grown in a shake flask in 293Freestyle medium (Invitrogen) supplemented with 50 microg/mL neomycin and 10 mM HEPES (37C, 8% carbon dioxide, shaking). The cells were centrifuged gently (approximately 500×g, 10 minutes) and the pellet resuspended in a mixture of Dulbecco's PBS (minus Mg++/Ca++) supplemented with 18% fetal bovine serum (Sigma Aldrich) and P1 virus such that the multiplicity of infection (MOI) was 10 and the final cell density was 1.3×10^6/mL (total volume 2.5 liters). The cells were transferred to a 5 liter Wave Bioreactor Wavebag (Wave Technologies, Mass.) and incubated for 4 hours at 27 degrees Celsius (17 rocks/min, 7 degrees platform angle); at the end of the incubation period, an equal volume (2.5 liters) of 293Freestyle medium supplemented with 30 mM sodium butyrate (Sigma Aldrich) was added (final concentration=15 mM), and the cells were grown for 20 hours (37 degrees Celsius, 8% CO2 [0.2 liters/min}, 25 rocks/minute, 7 degrees platform angle). Cells were harvested via centrifugation (3,000×g, 10 minutes), washed once on DPBS (minus Ca++/Mg++), resuspended in 0.25M sucrose, 25 mM HEPES, 0.5 mM EDTA, pH 7.4 and frozen at −80 degrees Celsius.
The frozen cells were thawed on ice and centrifuged at 700×g (1400 rpm) for 10 minutes at 4 degrees Celsius. The cell pellet was resuspended in 20 mL phosphate-buffered saline, and centrifuged at 1400 rpm for 10 minutes. The cell pellet was then resuspended in homogenization buffer (10 mM HEPES (Gibco #15630), pH 7.5, 1 mM EDTA (BioSolutions, #BIO260-15), 1 mM EGTA (Sigma, #E-4378), 0.01 mg/mL benzamidine (Sigma #B 6506), 0.01 mg/mL bacitracin (Sigma #B 0125), 0.005 mg/mL leupeptin (Sigma #L 8511), 0.005 mg/mL aprotinin (Sigma #A 1153)) and incubated on ice for 10 minutes. Cells were then lysed with 15 gentle strokes of a tight-fitting glass Dounce homogenizer. The homogenate was centrifuged at 1000×g (2200 rpm) for 10 minutes at 4 degrees Celsius. The supernatant was transferred into fresh centrifuge tubes on ice. The cell pellet was resuspended in homogenization buffer, and centrifuged again at 1000×g (2200 rpm) for 10 minutes at 4 degrees Celsius after which the supernatant was removed and the pellet resuspended in homogenization buffer. This process was repeated a third time, after which the supernatants were combined, Benzonase (Novagen # 71206) and MgC12 (Fluka #63020) were added to final concentrations of 1 U/mL and 6 mM, respectively, and incubated on ice for one hour. The solution was then centrifuged at 25,000×g (15000 rpm) for 20 minutes at 4 degrees Celsius, the supernatant was discarded, and the pellet was resuspended in fresh homogenization buffer (minus Benzonase and MgCl2). After repeating the 25,000×g centrifugation step, the final membrane pellet was resuspended in homogenization buffer and frozen at −80 degrees Celsius. The protein concentration was determined using the Pierce BCA protein assay kit (Pierce reagents A #23223 and B #23224).
Test compounds were serially diluted in 100% DMSO (J. T. Baker #922401). 2 microL of each dilution was added to appropriate wells of a 96-well plate (each concentration in triplicate). Unlabeled Compound A (or Compound B), at a final concentration of 10 microM, was used to determine non-specific binding. [^3H]-Compound A (or [^3H]-Compound B) was diluted in binding buffer (50 mM Tris-HCl, pH 7.5, (Sigma #T7443), 10 mM MgCl2 (Fluka 63020), 1 mM EDTA (BioSolutions #BIO260-15), 0.15% bovine serum albumin (Sigma #A7511), 0.01 mg/mL benzamidine (Sigma #B 6506), 0.01 mg/mL bacitracin (Sigma #B 0125), 0.005 mg/mL leupeptin (Sigma #L 8511), 0.005 mg/mL aprotinin (Sigma #A 1153)) to a concentration of 60 nM, and 100 microL added to all wells of 96-well plate (Nalge Nunc # 267245). Membranes expressing GPR119 were thawed and diluted to a final concentration of 20 μg/100 microL per well in Binding Buffer, and 100 microL of diluted membranes were added to each well of 96-well plate. […]

SMILES | Ki
Cc1c(O[C@@H]2CCN(C(=O)OC3(C)CC3)C[C@@H]2F)ncnc1N1CCn2nccc21 (single isomer, unassigned) [Example 5] | 57 nM and 38 nM and 50 nM and 64 nM and 44 nM and 13 nM and 42 nM and 104 nM and 46 nM
Cc1c(OC2CCN(C(=O)OC3(C)CC3)CC2)ncnc1N1CCn2nccc21 [Example 2, 1-Methylcyclopropyl 4-{[6-(2,3-dihydro-1H-imidazo[1,2-b]pyrazol-1-yl)-5-methylpyrimidin-4-yl]oxy}piperidine-1-carboxylate] | 305 nM
Cc1c(O[C@H]2CCN(C(=O)OC(C)C)C[C@H]2F)ncnc1N1CCn2nccc21 (racemic) [Example 4, Isopropyl (3R,4S)-4-{[6-(2,3-dihydro-1H-imidazo[1,2-b]pyrazol-1-yl)-5-methylpyrimidin-4-yl]oxy}-3-fluoropiperidine-1-carboxylate (racemic)] | 140 nM
Cc1c(O[C@H]2CCN(C(=O)OC3(C)CC3)C[C@H]2F)ncnc1N1CCn2nccc21 (racemic) [Example 3, 1-Methylcyclopropyl (3R,4S)-4-{[6-(2,3-dihydro-1H-imidazo[1,2-b]pyrazol-1-yl)-5-methylpyrimidin-4-yl]oxy}-3-fluoropiperidine-1-carboxylate (racemic)] | 74 nM and 83 nM and 85 nM and 97 nM and 71 nM and 34 nM and 50 nM
Cc1c(OC2CCN(C(=O)OC(C)C)CC2)ncnc1N1CCn2nccc21 [Example 1, Isopropyl 4-{[6-(2,3-dihydro-1H-imidazo[1,2-b]pyrazol-1-yl)-5-methylpyrimidin-4-yl]oxy}piperidine-1-carboxylate] | 514 nM and 442 nM and 446 nM and 524 nM
Cc1c(O[C@H]2CCN(C(=O)OC3(C)CC3)C[C@H]2F)ncnc1N1CCn2nccc21 (single isomer, unassigned) [Example 6] | 69 nM and 295 nM and 186 nM and 133 nM and 101 nM and 67 nM and 80 nM

— patent US20120295845A1, “IMIDAZO-PYRAZOLES AS GPR119 INHIBITORS” (Pfizer Inc, priority 2009, published 2012)
